Measured values published in patent publication US20230366875A1, “GPCR19-P2XN RECEPTOR COMPLEX AND USE THEREOF” (SEOUL NATIONAL UNIVERSITY R&DB FOUNDATION, priority 2020, published 2023).

Legend:
[1] = tested on: TNF-α, RANTES, MCP-1, IL-1β and IL-8; assay: Cytokine measurement using cytometric bead array (CBA); assay type: cell-based; conditions: 1 μM; compared with INT777, crisaborole, MCC950, A740003, GW791343, tofacitinib, prednisolone
Description: Specifically, cocktail beads were prepared by mixing fluorescent beads bound with antibodies to five types of inflammatory cytokines, TNF-α, RANTES, MCP-1, IL-1β and IL-8 to be confirmed. Next, 50 μl of the prepared cocktail beads, the prepared sample, and the standard sample were reacted at room temperature for 1 hour in a dark environment. […] As a positive control group, 1 μM of prednisolone, a corticosteroid was used. The reaction mixture was transferred to a new tube by the required amount so that the phycoerythrin (PE) detection reagent was 1 μl/sample, and washed with the washing buffer, the capture bead diluent was added so as to be contained by 50 μl per each sample through the calculation of volume, and the reaction was conducted at room temperature for 15 minutes in a dark environment. Next, 50 μl of the prepared PE detection reagent was added into the tube in which the cocktail beads, the prepared sample, and the standard sample were reacting, mixing was thoroughly performed, and then the reaction was further conducted for 2 hours. After all reactions were completed, 1 ml of washing buffer was added, centrifugation was performed at 200 g for 5 minutes, then the supernatant was removed, 300 μl of washing buffer was added, and then quantitative measurement of the 5 types of inflammatory cytokines was performed using a flow cytometer (CANTO II FACS, BD Biosciences, US).

P2X7 receptor [2] = assay: Ca++ mobilization by P2X7 receptor in microglia; assay type: cell-based, mouse; conditions: BV2 cells, Aβ (2 μM)+HY209 (400 ng/ml) 1 hour, ATP (20 μM) or BzATP (40 μM)
P2X7 receptor [3] = molecular target: T1, P2X7 receptor (Mus musculus, UniProt Q9Z1M0); assay: Ca++ mobilization by P2X7 receptor in macrophages; assay type: cell-based; conditions: BMDM cells, LPS (100 ng/ml)+HY209 (400 ng/ml) 1 hour, ATP (20 μM) or BzATP (40 μM)
T1 construct: endogenous in cells; host or cells: primary BMDM (bone marrow-derived macrophages)
Description: Specifically, BMDMs were obtained from three normal (wild-type, WT), GPCR19 KO or P2X7 KO mice. Then, the obtained BMDMs were treated with 20 μM ATP, attached to a glass coverslip, and then incubated in a physiological external solution consisting of NaCl 138 mM, KCl 5.6 mM, MgCl2 2 mM, HEPES 10 mM and pH 7.4 glucose 10 mM with 2 μM Fluo-4/AM in a 37° C. incubator for 30 minutes to observe intracellular Ca^++ mobilization. After that, the BMDMs were transferred to an open perfusion chamber to remove residual Fluo-4/AM, and the fluorescence level was measured using a fluorescence microscope (Nikon, Tokyo, Japan) under the conditions of excitation 494 nm and emission 506 nm. […]
After the treatment, Ca^++ mobilization measurement was started, and the cells were treated with ATP (20 μM) or BzATP (40 μM) in the presence of 2 mM CaCl2) and 0.5 mM MgCl2 50 seconds after the start of measurement. Intracellular Ca^++ mobilization was measured with […] using a fluorescence microscope in the same manner as in Example <2-1>, and graphed (FIG. 2D, left panels in first and second rows). After three independent experiments, the sum of the measured data was presented (FIG. 2D, right panels in first and second rows).

NLRP3 inflammasome [4] = assay: Inflammasomal components in HaCaT cells (immunostaining); assay type: cell-based, human; conditions: TNF-α (20 ng/ml)+HY209 (400 ng/ml) 3 hours, then DNCB (5 μg/ml) 24 hours
Description: (§1) After that, in order to stain inflammasomal components, the cells were stained with anti-NLRP3 conjugated antibody (Abeam, Cambridge, UK) and anti-ASC Ab (Clone B-3, Santa Cruz Biotechnology, Inc. Dallas, Texas, USA) at 4° C. overnight, and then with Alexa Fluor 488-labeled or Alexa Fluor 532-labeled secondary conjugated antibody (Invitrogen, Carlsbad, CA, USA).

NLRP3 inflammasome [5] = assay: Inflammasomal components in BMDM cells (immunostaining); assay type: cell-based, mouse; conditions: LPS (10 ng/ml)+HY209 (400 ng/ml) 1 hour, BzATP (300 μm) 1 hour
Description: as §1

IL-1β [6] = assay: IL-1β ELISA of HaCaT culture supernatant; assay type: cell-based, human; conditions: HaCaT cells
Description: Thereafter, the IL-1β concentration was measured according to the manufacturer's procedure using the IL-113 ELISA kit (R&D Systems Minneapolis, MN, USA) (FIG. 3B).

P2X7 receptor [7] = assay: Ca++ mobilization by P2X7 receptor in keratinocytes; assay type: cell-based, human; conditions: HaCaT cells, IL-1β (10 ng/ml)+TNF-α (10 ng/ml), HY209 200, 400 and 800 ng/ml, 20 μM BzATP or ATP
P2X7 = P2X7 (Homo sapiens, UniProt Q99572); assay: Potassium ion channel assay in PMA-differentiated U937 cells; conditions: U937 cells differentiated by PMA (25 nM), BzATP (600 μM), HY209 (1 μM) 1 hour before BzATP
Description: Specifically, U937 cells were used to investigate whether the activity of ion channel was changed by the regulation of GPCR19. U937 cells were differentiated by treatment with PMA (25 nM). After that, a fluorescent probe was added and the reaction was conducted for 1 hour. Thereafter, the cells were treated with BzATP (600 μM), and the cumulative fluorescence value was measured using an ELISA instrument to investigate whether the ion channel was activated.

IL-1β [8] = assay: IL-1β ELISA of BMDM culture supernatant; assay type: cell-based, mouse; conditions: BMDM cells
Description: The cells were treated with ATP (500 μm) or BzATP (300 μm) for an additional 1 hour before recovery of the culture supernatant of the sample. IL-1β concentration in the culture supernatant recovered was measured according to the manufacturer's procedure using the IL-1β ELISA kit (R & D Systems Minneapolis, MN, USA) (FIG. 4A).
IL-1β concentration in the culture supernatant recovered was measured according to the manufacturer's procedure using the IL-1β ELISA kit (R & D Systems Minneapolis, MN, USA) (FIG. 4B).

Chain of P2X7 (Q8TDU6 whole entry partner): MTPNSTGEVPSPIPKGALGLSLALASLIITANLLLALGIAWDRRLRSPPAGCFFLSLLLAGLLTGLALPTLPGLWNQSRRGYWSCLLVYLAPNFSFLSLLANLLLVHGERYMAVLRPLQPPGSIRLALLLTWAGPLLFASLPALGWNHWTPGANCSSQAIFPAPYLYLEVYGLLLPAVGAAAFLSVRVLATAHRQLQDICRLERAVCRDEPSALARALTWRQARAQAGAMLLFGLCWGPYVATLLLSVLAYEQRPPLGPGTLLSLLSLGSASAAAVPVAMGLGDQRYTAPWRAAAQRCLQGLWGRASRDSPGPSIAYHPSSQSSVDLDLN
Chain of P2X7 (Q99572 whole entry): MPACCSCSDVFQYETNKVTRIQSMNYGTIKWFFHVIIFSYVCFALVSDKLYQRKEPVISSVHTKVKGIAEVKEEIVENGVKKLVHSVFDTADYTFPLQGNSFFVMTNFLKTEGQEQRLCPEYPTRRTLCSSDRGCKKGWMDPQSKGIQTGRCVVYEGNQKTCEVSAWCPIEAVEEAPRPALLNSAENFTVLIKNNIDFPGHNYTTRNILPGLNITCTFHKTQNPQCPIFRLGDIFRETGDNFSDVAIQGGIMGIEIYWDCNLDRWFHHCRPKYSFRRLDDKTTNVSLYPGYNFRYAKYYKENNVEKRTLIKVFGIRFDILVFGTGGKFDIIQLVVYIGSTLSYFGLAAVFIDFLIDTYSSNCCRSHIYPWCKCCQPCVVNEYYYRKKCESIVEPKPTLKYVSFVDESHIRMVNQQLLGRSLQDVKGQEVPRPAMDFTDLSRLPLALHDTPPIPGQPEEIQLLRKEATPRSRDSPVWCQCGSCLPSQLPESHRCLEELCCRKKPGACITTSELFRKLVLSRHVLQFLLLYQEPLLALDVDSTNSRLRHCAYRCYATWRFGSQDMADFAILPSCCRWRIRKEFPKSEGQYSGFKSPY
T1 sequence (Q80SS6 whole entry partner): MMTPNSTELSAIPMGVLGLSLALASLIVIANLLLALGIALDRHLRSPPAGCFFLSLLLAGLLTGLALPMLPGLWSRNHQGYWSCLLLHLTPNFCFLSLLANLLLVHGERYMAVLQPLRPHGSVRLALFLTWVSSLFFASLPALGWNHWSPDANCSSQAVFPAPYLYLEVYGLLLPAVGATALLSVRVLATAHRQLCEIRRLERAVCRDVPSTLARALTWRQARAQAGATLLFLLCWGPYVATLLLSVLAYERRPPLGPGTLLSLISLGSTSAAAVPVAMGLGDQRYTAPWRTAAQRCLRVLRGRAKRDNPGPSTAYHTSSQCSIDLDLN
T1 sequence (Q9Z1M0 whole entry): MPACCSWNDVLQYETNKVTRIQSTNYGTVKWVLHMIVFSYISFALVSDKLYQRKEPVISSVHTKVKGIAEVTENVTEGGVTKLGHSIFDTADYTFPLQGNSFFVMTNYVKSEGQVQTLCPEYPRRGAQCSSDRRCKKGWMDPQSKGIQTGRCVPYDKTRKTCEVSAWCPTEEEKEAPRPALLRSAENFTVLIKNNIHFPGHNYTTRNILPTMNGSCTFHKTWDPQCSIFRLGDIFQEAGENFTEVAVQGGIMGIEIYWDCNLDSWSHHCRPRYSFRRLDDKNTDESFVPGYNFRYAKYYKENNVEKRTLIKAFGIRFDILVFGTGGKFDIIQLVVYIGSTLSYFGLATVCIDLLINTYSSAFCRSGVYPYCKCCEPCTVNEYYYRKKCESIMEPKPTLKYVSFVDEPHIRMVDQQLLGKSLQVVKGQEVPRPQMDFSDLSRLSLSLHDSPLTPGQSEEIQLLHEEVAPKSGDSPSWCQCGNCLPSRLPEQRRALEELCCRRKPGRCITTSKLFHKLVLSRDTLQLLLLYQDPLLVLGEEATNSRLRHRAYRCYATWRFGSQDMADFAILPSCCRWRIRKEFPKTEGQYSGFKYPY

In the case of `C[C@H](CCC(=O)NCCS(=O)(=O)O)[C@H]1CC[C@H]2[C@@H]3CC[C@@H]4C[C@H](O)CC[C@]4(C)[C@H]3C[C@H](O)[C@]12C` [HY209, sodium taurodeoxycholate], the “inhibitory effect on five types of inflammatory cytokines produced by the inflammasome stimulation signal” value [1] is reported as “superior”, the “Ca++ mobilization increased under the influence of Aβ” value (P2X7 receptor [2]) is reported as “significantly decreases” and the “Ca++ mobilization increased under the influence of LPS” value (P2X7 receptor [3]) is reported as “significantly decreases”. The “increase in hASC expression” value (NLRP3 inflammasome [4]) was “suppressed”, the “increase in hNLRP3-ASC oligomerization” value (NLRP3 inflammasome [4]) was “suppressed” and the “increase in hNLRP3 expression” value (NLRP3 inflammasome [4]) was “suppressed”. The “increase in hASC expression” value (NLRP3 inflammasome [5]) was “suppressed”, the “increase in hNLRP3-ASC oligomerization” value (NLRP3 inflammasome [5]) was “suppressed” and the “increase in hNLRP3 expression” value (NLRP3 inflammasome [5]) was “suppressed”. The “increase in the production of IL-1β” value (IL-1β [6]; TNF-α (20 ng/ml)+DNCB (5 μg/ml)+HY209 (400 ng/ml), 24 hours) was “suppressed”, the “increase in the production of IL-1β” value (IL-1β [6]; TNF-α+DNCB+HY209 (400 ng/ml) 24 hours, then ATP 3 hours) was “suppressed” and the “Ca++ mobilization increased under the influence of IL-1β and TNF-α” value (P2X7 receptor [7]) was “significantly decreases as the concentration of HY209 increases”. For the same compound, the “decrease of cumulative fluorescence value increased by BzATP” value (P2X7) was 100%, the “increase in the production of IL-1β” value (IL-1β [8]; HY209 (400 ng/ml) after treatment with LPS+BzATP (posttreatment, 3 hours after LPS)) was “suppressed” and the “increase in the production of IL-1β” value (IL-1β [8]; HY209 (400 ng/ml) before treatment with LPS+ATP (pretreatment, 1 hour before LPS)) was “suppressed”. For the same compound, the “increase in the production of IL-1β” value (IL-1β [8]; LPS (10 ng/ml)+ATP (500 μm), HY209 0, 25, 100, 400 ng/ml) was “suppressed in a HY209 concentration-dependent manner” and the “increase in the production of IL-1β” value (IL-1β [8]; LPS (10 ng/ml)+BzATP (300 μm), HY209 0, 25, 100, 400 ng/ml) was “suppressed in a HY209 concentration-dependent manner”.
